Assay results taken from PMC5320532, “Intracellular drug bioavailability: a new predictor of system dependent drug disposition” (Scientific Reports, 2017).
Entries after “also recorded” stand apart in the source; their conditions may differ. Where two headings read alike, the source gives them in different places.

How the values were obtained:
[1] = Intracellular fraction of unbound compound (fu,cell), dialysis of cell homogenate; conditions: human, mock-transfected HEK293 cell homogenate
[2] = Intracellular compound accumulation (Kp) and intracellular bioavailability (Fic); conditions: human, mock-transfected HEK293 cells
Description: (§1) To determine intracellular unbound compound concentrations, we measured intracellular fraction of unbound compound (fu,cell) in parallel with total intracellular compound accumulation (Ccell), as described below. Intracellular compound bioavailability (Fic) was calculated as the ratio between intracellular unbound compound concentration (Cu,cell = fu,cell∙Ccell) (the concentration available to bind intracellular targets) and the externally added compound concentration (Cmedium):
(§2) HEK293 cells were grown for two days in 24-well plates, as previously described[25]. MDCK cells were grown for two days in 96-well plates, prior to the intracellular compound accumulation experiments. The growth media were the same as described in the section ‘Cell line maintenance’ without addition of hygromycin B to avoid transporter inhibition.
(§3) Intracellular compound accumulation at steady-state was measured essentially as described before[25]. Briefly, cells were washed twice with HBSS and incubated for 45 min with solutions of single test compounds (in HBSS) on an orbital shaker (300 rpm) at 37 °C. At the end of the experiment, the remaining extracellular compound solutions were collected and cells were washed twice with ice-cold phosphate-buffered saline pH 7.4 (PBS). For hepatocytes in suspension, the cells were separated from the extracellular solutions by centrifugation (100 × g for 5 min). Compounds were extracted from the cells using acetonitrile/water (60:40) spiked with 50 nM warfarin (internal standard). Extracellular medium samples were diluted 10-fold with the same extraction solution. […] Protein concentrations were measured in representative wells of the plates using the BCA Protein Assay Reagent Kit (Thermo Fisher Scientific Inc.).
(§4) The ratio between total compound concentrations in the cells and in the medium (Kp) was calculated according to:
(§5) where Acell is the amount of compound in the cell samples, Vcell is the cell volume (6.5 μL/mg protein[80]), and Cmedium is the compound concentration in the medium sample.

[3] = test system: P-gp; experiment: as above; conditions: dog, MDCK II wild-type cells
Description: as §1, §2, §3, §4, §5

[4] = test system: P-gp; experiment: as above; conditions: dog, P-gp-transfected MDCK cells
Description: as §1, §2, §3, §4, §5

[5] = test system: OATP1B1; experiment: as above; conditions: human, OATP1B1-transfected HEK293 cells
Description: as §1, §2, §3, §4, §5

[6] = in vitro; conditions: dog
[7] = Intracellular compound accumulation (Kp) and intracellular bioavailability (Fic); assay type: in vitro ADME; conditions: geometrical mean ± S.E.M.
Description: where Kp is the ratio Ccell/Cmedium.
Hepatocytes were isolated from human liver tissue obtained from two donors undergoing surgical resections at the Department of Surgery, Uppsala University Hospital. […] Isolation was performed using a two-step collagenase procedure, as previously described.
For the corresponding experiments in human hepatocytes, two cell culture configurations were used: freshly isolated cells in suspension, or cells cultivated as monolayers for 24 h. The freshly isolated cells were suspended directly after isolation at a concentration of 5 × 10^6 cells/ml in HBSS. The cell suspension (100 μl) was added to 96-well plates, which were immediately used for accumulation experiments. […] After cell attachment, medium was replaced by hepatocyte maintenance medium (Lonza) supplemented with insulin (10 μg/ml), transferrin (5.5 μg/ml), selenium (5 ng/ml), penicillin (100 units/ml), streptomycin (100 μg/ml), and dexamethasone (0.1 μM). Cells were kept in maintenance medium for 24 h, until the start of the intracellular compound accumulation experiments.

[8] = Intracellular fraction of unbound compound (fu,cell), dialysis of cell homogenate; assay type: in vitro ADME; conditions: freshly isolated human hepatocyte homogenate; geometrical mean ± S.E.M.; read-out: fu,cell hepatocytes
[9] = as above; assay type: in vitro ADME; conditions: human; OATP1B1-transfected HEK293 cell homogenate; geometrical mean ± S.E.M.; read-out: Cell binding (fu,cell)
Description: For intracellular fraction of unbound compound experiments, cell lines or primary cells were suspended to a concentration of 10 × 10^6 cells/ml in Hank’s balanced salt solution (HBSS). Cell suspensions were homogenized for 10 s with a VCX-500 ultrasonic processor (Sonics & Materials) at 20% intensity and used immediately for binding experiments.
Binding to cell homogenates at steady-state was measured using dialysis as previously described. […] Briefly, the cell homogenate was spiked with six randomly-chosen compounds. Homogenates were dialyzed for 4 h using a Rapid Equilibrium Dialysis device (Thermo Fisher Scientific Inc.). At the end of the incubation, uniform sample matrices were obtained by addition of blank homogenate to samples from the buffer chamber, and by addition blank buffer to samples from the homogenate chamber. Dilutions of samples from the homogenate chambers (10-fold and 100-fold) were prepared. […] Compounds in the supernatant were analyzed by ultra-performance liquid chromatography coupled to tandem mass spectrometry (UPLC-MS/MS), as described below.
The fraction of compound that was not bound to cell homogenate (fu,hom) was calculated according to: […]
where PAbuffer is the peak area of compound in the buffer chamber and PAhom is the peak area of compound in the homogenate chamber, both corrected for the peak area of the internal standard in the respective chamber. For each compound, the dilution of the homogenate sample where PAhom was closest to PAbuffer was used.
The fraction of unbound compound in the cell (fu,cell) was calculated according to: […]

[10] = test system: P-gp; experiment: Intracellular compound accumulation (Kp) and intracellular bioavailability (Fic); conditions: dog, P-gp-KO (CRISPR) MDCK cells
Description: as §1, §2, §3, §4, §5

[11] = design: method as in PMID 19785645; conditions: human subjects; co-administration of cyclosporine A ref 58; cited from earlier work
[12] = test system: P-gp; design: method as in earlier work; conditions: dot = substrate; collated from literature ref 74, 75, 76; cited from earlier work
[13] = Intracellular fraction of unbound compound (fu,cell), dialysis of cell homogenate; conditions: dog, homogenate of MDCK cells transfected with human P-gp
[14] = test system: OATP1B1; conditions: dot = substrate; collated from literature ref 74, 75, 76; cited from earlier work
[15] = test system: P-gp-transfected MDCK cells; conditions: dog
Description: as §1, §2, §3, §4, §5

[16] = test system: mock-transfected HEK293 cells; conditions: human
Description: as §1, §2, §3, §4, §5

[17] = test system: P-gp; experiment: in vitro; conditions: dog
Description: as §1, §2, §3, §4, §5

[18] = test system: P-gp-KO (CRISPR) MDCK cells; conditions: dog
Description: as §1, §2, §3, §4, §5

[19] = test system: P-gp-transfected MDCK cells (+ elacridar); conditions: dog, MDCK-MDR1
[20] = test system: MDCK II wild-type cells; conditions: dog
Description: as §1, §2, §3, §4, §5

[21] = in vitro; conditions: human
[22] = test system: OATP1B1-transfected HEK293 cells; conditions: human
Description: as §1, §2, §3, §4, §5

[23] = test system: P-gp-transfected MDCK cells; experiment: Intracellular compound accumulation (Kp) and intracellular bioavailability (Fic); conditions: 0.5 μM; ratio cP-gp-KO/P-gp-transfected
Description: as §1, §2, §3, §4, §5

[24] = test system: primary human hepatocytes; experiment: Metabolic clearance (CLint) in primary human hepatocytes; assay type: in vitro ADME; conditions: 1 μM; freshly isolated human hepatocytes in suspension vs after 24 h in monolayer
Description: Metabolic clearance (CLint) was determined, as previously described. […] At time points 0, 10, 30, and 60 min, the reaction was stopped by addition of acetonitrile (200 μl) spiked with 50 nM warfarin (internal standard). […] CLint was calculated as the product of the compound disappearance rate and incubation volume, normalized by the cell number.

fraction unbound at 4 h [1]	Kp at 45 min, 0.1 μM [2]	Kp at 45 min [3]	Kp at 45 min, 0.5 μM [4]	Kp at 45 min, 0.1 μM [5]	fraction unbound at 4 h [9]	Kp at 45 min, 0.5 μM [10]	fraction unbound at 4 h [13]	SMILES	fraction unbound [6]	fraction unbound at 4 h [8]	increase of AUC by cyclosporine A [11]	P-gp substrate [12]	OATP1B1 substrate [14]	further results
0.017 ± 0.003	45 ± 6	35 ± 5	21 ± 2	94 ± 12	0.015 ± 0.001	53 ± 4	0.0099 ± 0.0026	CC(C)n1c(/C=C/C(O)CC(O)CC(=O)O)c(-c2ccc(F)cc2)c2ccccc21 (centres unmarked) [Fluvastatin]			3- to 4 fold	●	●	
								CN(C)C(=O)C(CCN1CCC(O)(c2ccc(Cl)cc2)CC1)(c1ccccc1)c1ccccc1 [Loperamide]	0.00051 ± 0.00051			●		intracellular bioavailability (Fic) [15]: 0.13±0.13; intracellular bioavailability (Fic) [16]: 4.3±1.7; Kp [17]: 987 ± 198; intracellular bioavailability (Fic) [18]: 0.34±0.35; intracellular bioavailability (Fic) [19]: 0.33±0.33; intracellular bioavailability (Fic) [20]: 0.50±0.51; fraction unbound [21]: 0.0078 ± 0.0008; intracellular bioavailability (Fic) [22]: 6.8±1.8
0.00039 ± 8e-05	337 ± 113	494 ± 74	53 ± 19	652 ± 228	0.00044 ± 0.0001	1080 ± 50	0.0001 ± 4e-05	Cc1c(O)cccc1C(=O)N[C@@H](CSc1ccccc1)[C@H](O)CN1C[C@H]2CCCC[C@H]2C[C@H]1C(=O)NC(C)(C)C [Nelfinavir]				●		Fic fold lower in P-gp-transfected than in cP-gp-KO MDCK cells [23]: 20 fold
0.023 ± 0.005	4.2 ± 0.3	11	11 ± 2	35 ± 3	0.025 ± 0.006	13 ± 1	0.023 ± 0.005	O=C(O)C[C@H](O)C[C@H](O)/C=C/c1c(C2CC2)nc2ccccc2c1-c1ccc(F)cc1 [Pitavastatin]		0.017 ± 0.011	5- to 15 fold	●	●	
								CC(C)c1nc(CN(C)C(=O)N[C@H](C(=O)N[C@@H](Cc2ccccc2)C[C@H](O)[C@H](Cc2ccccc2)NC(=O)OCc2cncs2)C(C)C)cs1 [Ritonavir]				●		metabolic clearance (CLint), suspension vs monolayer hepatocytes [24]: higher rates; also recorded: reduced

SMILES	fraction unbound at 4 h [1]	Kp at 45 min, 0.1 μM [2]	Kp at 45 min [3]	Kp at 45 min, 0.5 μM [4]	Kp at 45 min, 0.1 μM [5]	fraction unbound at 4 h [9]	Kp at 45 min, 0.5 μM [10]	fraction unbound at 4 h [13]	fraction unbound [6]	fraction unbound at 4 h [8]	increase of AUC by cyclosporine A [11]	P-gp substrate [12]	OATP1B1 substrate [14]	further results
COc1ccc(CCN2CCC(Nc3nc4ccccc4n3Cc3ccc(F)cc3)CC2)cc1 [Astemizole]	0.0018 ± 0.0006	821 ± 253	1680 ± 71	995 ± 94	738 ± 576	0.0013 ± 0.0004	2010 ± 200		1e-05 ± 2e-05	0.00036 ± 0.00012				Kp at 45 min ([7]; freshly isolated human hepatocytes in suspension): 1990 ± 1090; Kp at 24 h ([7]; human hepatocytes cultured for 24 h in monolayer format, Monolayer hepatocytes (human, 24 h culture)): 1600 ± 308
